These results are taken from patent publication US20060062846A1, “Alfuzosin tablets and synthesis” (Cimex Pharma AG, priority 2004, published 2006).

One series can be described thus: solubility in water. The series is classed as physicochemical.
The conditions of series [1]: immediate-release tablet, cited from earlier work.

Each structure is given as a SMILES string. Structures can show the parent of a compound that is named as a salt.

Consider `COc1cc2nc(N(C)CCCNC(=O)C3CCCO3)nc(N)c2cc1OC` (racemic) [alfuzosin hydrochloride, (R,S)-N-(3-(4-amino-6,7-dimethoxy-2-quinazolinyl)methylamino) propyl) tetrahydro-2-furancarboxamide hydrochloride], for which the solubility in water entry in “solubility in water” is given as “freely soluble in water”. In addition, in series [1], the “Peak plasma concentrations reached after administration (time)” value was at most 1 h and the “inter-individual fluctuations in plasma concentrations” value is given as “sevenfold”. The Terminal elimination half-life entry in series [1] (range printed (1-10 h)) was “approximately 5 h”. In addition, the Bioavailability in series [1] (range printed (45-90%)) is listed as 64%.
